Measurements as given in patent US10028992B2, “Methods of treating muscular dystrophy” (BOARD OF REGENTS OF THE NEVADA SYSTEM OF HIGHER EDUCATION …, priority 2012, dated 2018).

Tested on: α7 integrin promoter
Assay: muscle cell-based assay: α7βgal+/− myoblasts/myotubes, LacZ reporter, β-galactosidase cleavage of FDG
Set-up: species or system mouse; Results in α7+/− β-galactosidase assay: scale not given here
Details: Myoblasts
Summary of the method: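 Fluorescein generated from FDG by β-galactosidase reports α7 integrin promoter activity in differentiated myoblasts from α7+/− LacZ knock-in pups. Screening hits then went to dose-response, western blotting and a myostatin counterscreen.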

Row | SMILES | Results in α7+/− β-galactosidase assay (0.5 uM) | Results in α7+/− β-galactosidase assay (1 uM) | Results in α7+/− β-galactosidase assay (5 uM) | Results in α7+/− β-galactosidase assay (10 uM) | Results in α7+/− β-galactosidase assay (20 uM) | Results in α7+/− β-galactosidase assay (40 uM)
1 | COC(=O)c1cc(S(=O)(=O)NCC2CCN(Cc3ccc(Cl)cc3)CC2)cn1C [drawing 672] | 0.2815 | 0.1861 | −0.03678 | −0.03865 | 0.1247 | 0.0618
2 | COc1ccc(C(=O)Cn2nnc(-c3ccccc3NC(=O)c3ccco3)n2)cc1 [drawing 673] | 0.4054 | 0.1958 | −0.2666 | −0.3483 | −0.6016 | −0.7762
3 | N#Cc1nc(COc2ccccc2)oc1N1CCCC1 [drawing 674] | 0.189 | 0.0825 | −0.1343 | −0.1744 | −0.09766 | −0.3419
4 | CCCc1nnc(SCC(=O)NC2CCCC2)n1CCOC [drawing 675] | 0.1622 | 0.07572 | −0.08939 | −0.107 | −0.1998 | −0.413
5 | Nc1cccc(/C=C/C(=O)O)c1 [drawing 676] | 0.1361 | 0.05647 | −0.05605 | 0.2478 | −0.08666 | −0.2769
6 | CCCC1C(c2cc(OC)c(OC)c(OC)c2)=Nc2c1c(=O)[nH]c(=O)n2Cc1ccccc1 (stereo not drawn) [drawing 677] | 0.221 | 0.193 | −0.1488 | 0.1807 | −0.03424 | −0.4586
7 | CC(C)(C)c1ccc(C(=O)OCC(=O)Nc2sc3c(c2C#N)CCC3)cc1 [drawing 678] | 0.2055 | 0.1005 | 0.3001 | −0.02658 | 0.3137 | 0.2257
8 | CCOc1cc(C)c(S(=O)(=O)N2CCCCC2)cc1C [drawing 679] | 0.1137 | 0.2418 | 0.02032 | −0.02723 | 0.1874 | 0.2404
9 | Cc1cc(OCC(=O)NC(C)C)ccc1Cl [drawing 680] | −0.00101 | 0.01964 | −0.2128 | −0.3742 | −0.5775 | −0.6915
10 | Cc1ccsc1CN(C)CC(=O)Cc1ccc([N+](=O)[O-])cc1Cl [drawing 681] | 0.233 | 0.3513 | −0.03377 | −0.09863 | −0.01304 | −0.0403
11 | O=C1c2ccccc2C(=O)C1(CC(O)O)c1ccccc1 [drawing 682] | 0.2496 | 0.3517 | −0.03545 | −0.1644 | −0.1709 | −0.2409
12 | Cc1ccc(Cn2nnc3c(O)nc(C4CCCN(C(=O)c5ccco5)C4)nc32)cc1 (stereo not drawn) [drawing 683] | 0.09519 | 0.1784 | −0.02152 | −0.00668 | −0.00332 | 0.06402
13 | Cc1ccc(NS(=O)(=O)c2ccc(-c3ccc(O)nn3)o2)c(C)c1 [drawing 685] | 0.09197 | 0.1114 | −0.00204 | −0.06144 | 0.2389 | 0.2674
14 | CCCCN1CC(=O)N2Cc3[nH]c4ccccc4c3C[C@H]2C1=O [drawing 686] | 0.1518 | 0.2222 | −0.00341 | −0.04523 | 0.1761 | 0.2299
15 | CCC(CC)C(=O)Nc1c(C(=O)N2CCN(c3ccccc3)CC2)oc2ccccc12 [drawing 687] | 0.02952 | 0.08671 | 0.02479 | −0.0251 | 0.2442 | 0.3404
16 | Cc1nc(/C=C2\C(=O)Nc3ccccc32)c[nH]1 [drawing 688] | 0.0102 | 0.003171 | 0.1245 | −0.03494 | 0.1171 | 0.02067
17 | O=C(NCCc1ccc(Cl)cc1)C1CCCO1 (stereo not drawn) [drawing 689] | 0.03412 | 0.00045 | 0.2918 | 0.03423 | 0.08798 | 0.003802
18 | CCNC(=O)C(=O)Nc1cc2c3c(c1)CCN3C(=O)CC2 [drawing 690] | 0.05836 | 0.1657 | 0.2771 | 0.06388 | 0.05069 | 0.005609
19 | Cc1cccc(NCC(=O)N/N=C/c2ccccn2)c1 [drawing 691] | 0.1681 | 0.3046 | 0.3928 | 0.1778 | −0.1319 | −0.4037
20 | COc1ccc(CN2CCNC(=O)C2CC(=O)NCCc2c[nH]c3ccccc23)c(OC)c1 (stereo not drawn) [drawing 692] | 0.0135 | 0.04793 | 0.2102 | −0.04499 | −0.02608 | −0.01274
21 | O=c1c2cc(-c3ccccc3)sc2nc2n1N=C(c1ccccc1)CS2 [drawing 693] | −0.04703 | −0.001 | 0.1857 | 0.01009 | 0.0113 | 0.00476
